Results: PubChem BioAssay (NCI)
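In this assay, cells in 96-well plates receive the compound at five concentrations for 48 hours. Endpoints are linearly interpolated between the surrounding concentrations. GI50: concentration for 50% inhibition of growth. TGI: concentration producing complete growth inhibition.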

Tests used:
Experiment in all cases: NCI-60 cell line screen, 48 h
CCRF-CEM leukemia = system: CCRF-CEM leukemia
M14 melanoma = system: M14 melanoma
SN12C renal = system: SN12C renal
RPMI-8226 leukemia = system: RPMI-8226 leukemia
MOLT-4 leukemia = system: MOLT-4 leukemia
OVCAR-5 ovarian = system: OVCAR-5 ovarian
NCI-H522 lung = system: NCI-H522 lung
NCI/ADR-RES ovarian = system: NCI/ADR-RES ovarian
MDA-MB-435 = system: MDA-MB-435
DU-145 prostate = system: DU-145 prostate

| SMILES | TGI (CCRF-CEM leukemia) [µM] | TGI (M14 melanoma) [µM] | TGI (SN12C renal) [µM] | TGI (RPMI-8226 leukemia) [µM] | TGI (MOLT-4 leukemia) [µM] | TGI (OVCAR-5 ovarian) [µM] | GI50 (NCI-H522 lung) [µM] | TGI (NCI-H522 lung) [µM] | GI50 (CCRF-CEM leukemia) [µM] | GI50 (M14 melanoma) [µM] | GI50 (RPMI-8226 leukemia) [µM] | GI50 (NCI/ADR-RES ovarian) [µM] | TGI (NCI/ADR-RES ovarian) [µM] | GI50 (MOLT-4 leukemia) [µM] | GI50 (MDA-MB-435) [µM] | TGI (MDA-MB-435) [µM] | GI50 (OVCAR-5 ovarian) [µM] | GI50 (SN12C renal) [µM] | TGI (DU-145 prostate) [µM] |
| --- | --- | --- | --- | --- | --- | --- | --- | --- | --- | --- | --- | --- | --- | --- | --- | --- | --- | --- | --- |
| CCOC(=O)C(C)c1cc(C2(C)OCCO2)c(C)o1 (stereo not given) | > 100 | > 100 | > 100 | > 100 | > 100 | > 100 |  |  |  |  |  |  |  |  |  |  |  |  |  |
| COc1ccc2[nH]c(Cl)c(/C=C3/C(=O)N(C)c4ccccc43)c2c1 | > 100 | > 100 |  | > 100 | > 100 | > 100 | > 100 | > 100 | 43.6 | > 100 | > 100 | > 100 | > 100 | 79.1 | > 100 | > 100 | > 100 |  |  |
| O=C([CH-]C(=O)c1ccccc1)c1ccccc1.O=C([CH-]C(=O)c1ccccc1)c1ccccc1.[Nd+3].[OH-].[OH3+] |  | 32.6 | 70.7 |  | 33.1 | 81.5 | 1.42 | 13.3 |  | 13.7 | 6.04 |  |  | 3.88 |  |  | 22.3 | 12.6 |  |
| CC(C(=O)Oc1ccc2ccccc2c1-c1c(O)ccc2ccccc12)c1ccccc1 (stereo not given) | 64.4 | 27.7 | 29.7 | 57.6 | 44.8 | 31 |  |  |  |  |  |  |  |  |  |  |  |  |  |
| CCOC(=O)C1C(=O)c2ccccc2CN1Cc1ccccc1 (stereo not given) | > 100 | > 100 | > 100 | > 100 | > 100 | > 100 |  | > 100 |  |  |  |  |  |  |  |  |  |  |  |
| c1ccc(N=C2c3ccccc3C3=NCCCN32)cc1 | > 100 | > 100 | > 100 | > 100 | > 100 | > 100 |  | 96.8 |  |  |  |  |  |  |  |  |  |  |  |
| CC[N+](CC)(CC)CCCn1c2c(c3ccccc3c1=O)C(=O)c1ccccc1-2 | 23.6 | 12.1 | > 100 | > 100 | > 100 | 48.6 | 4.71 | 21.4 | 2.99 | 3.1 | 5.2 | 6.5 | 27.2 | 5.58 | 18.3 | 62.6 | 16.5 | 5.59 |  |
| COC(=O)c1nc(NC#N)[nH]c(=O)c1C | > 100 | > 100 | > 100 | > 100 | > 100 | > 100 |  | > 100 |  |  |  |  |  |  |  |  |  |  |  |
| O=C(CCCn1ccnc1[N+](=O)[O-])NCCn1ccnc1 | > 100 | > 100 | > 100 |  | > 100 | > 100 |  | > 100 |  |  |  |  | > 100 |  |  | > 100 |  |  | > 100 |
| CC1NOC(=O)C1N=Nc1ccccc1Cl (stereo not given) | > 100 | > 100 | > 100 | 54.7 |  | > 100 |  | 34.2 |  |  |  |  |  |  |  |  |  |  |  |
| CC(=O)Nc1ccc(C2[C@H]3C(=O)N(c4ccc(Cc5ccc(N6C(=O)[C@@H]7ON(c8ccccc8)C(c8ccc(NC(C)=O)cc8)[C@@H]7C6=O)cc5)cc4)C(=O)[C@H]3ON2c2ccccc2)cc1 (stereo not given in full) | > 100 | 79.8 | > 100 | > 100 | > 100 | > 100 |  | > 100 |  |  |  |  |  |  |  |  |  |  |  |
